In ChEMBL document CHEMBL5729456, “Compounds useful in HIV therapy” (2022):

Test: Jurkat Latency Reversal Assay: Jurkat HIV-luciferase clones were maintained in RPMI medium 1640 (Gibco by Life Technologies) containing 10% (vol/vol) fetal bovine serum (SAFC/Sigma-Aldrich) and 25 units/mL penicillin, 25 units/mL streptomycin (Gibco by Life Technologies), and were split 1:4 every 3 to 4 days to maintain a cell density of ˜0.3 to 1 million cells/mL. The Jurkat clones were maintained with the addition of 500 nM EFV in the medium. Three Jurkat cell clones (C16, I15, and N6), each harboring one or two integrated HIV proviruses expressing the luciferase reporter gene, were added at equal amounts for a total of 5,000 cells per well to 384-well plates containing compound titrations. Dose-response testing was performed on compounds dissolved in dimethyl sulfoxide (DMSO, Fisher Scientific, Merelbeke, Belgium) dispensed in duplicate serial 3-fold, 14-point titrations using a D300e Digital Droplet Dispenser (Hewlett-Packard) to give final assay concentrations of 10 μM to 2.1 pM in 50 μL of medium at 0.5% DMSO (vol/vol) final concentration. Cells and compound were incubated at 37° C. for 48 hours, unless otherwise indicated, followed by the addition of 20 μL of Steady-Glo® Luciferase (Promega). Luminescence resulting from the induction of the virally expressed luciferase was measured using an EnVision 2102 Multilabel Plate Reader (Perkin Elmer). Dose-response relationships were analyzed with GraphPad PRISM 6 using a four-parameter logistic regression model to calculate the concentration of compound that gives half-maximal response (EC50) and the maximal percent activation compared to the vehicle control.

SMILES: CN[C@@H](C)C(=O)N[C@H]1CCS[C@H]2CC(C)(C)[C@@H](C(=O)N[C@H](C(=O)N[C@H]3CC[C@H](NC(=O)[C@@H](NC(=O)[C@H]4N5C(=O)[C@@H](NC(=O)[C@H](C)NC)CCS[C@H]5CC4(C)C)c4ccccc4)CC3)c3ccccc3)N2C1=O
- EC50: 53.7 nM

SMILES: CN[C@@H](C)C(=O)N[C@H]1CCS[C@H]2CC(C)(C)[C@@H](C(=O)N[C@H]3c4ccccc4C[C@H]3C(=O)N[C@H]3CC[C@H](NC(=O)[C@@H]4Cc5ccccc5[C@@H]4NC(=O)[C@H]4N5C(=O)[C@@H](NC(=O)[C@H](C)NC)CCS[C@H]5CC4(C)C)CC3)N2C1=O
- EC50: 429 nM

SMILES: CN[C@@H](C)C(=S)N[C@H]1CCS[C@H]2CC(C)(C)[C@@H](C(=O)N[C@H]3c4ccccc4CC[C@H]3C(=O)N[C@H]3CC[C@H](NC(=O)[C@@H]4CCc5ccccc5[C@@H]4NC(=O)[C@H]4N5C(=O)[C@@H](NC(=S)[C@H](C)NC)CCS[C@H]5CC4(C)C)CC3)N2C1=O
- EC50: 6.8 nM

SMILES: CN[C@@H](C)C(=O)N[C@H]1CCS[C@H]2CC(C)(C)[C@@H](C(=O)N[C@H]3c4ccccc4CC[C@H]3C(=O)N[C@H]3CC[C@H](NC(=O)[C@@H]4CCc5ccccc5[C@@H]4NC(=O)[C@H]4N5C(=O)[C@@H](NC(=O)[C@H](C)NC)CCS[C@H]5CC4(C)C)CC3)N2C1=O
- EC50: 324 nM

SMILES: CN[C@@H](C)C(=S)N[C@H]1CCS[C@H]2CC(C)(C)[C@@H](C(=O)N[C@H]3c4ccccc4C[C@H]3C(=O)N[C@H]3CC[C@H](NC(=O)[C@@H]4Cc5ccccc5[C@@H]4NC(=O)[C@H]4N5C(=O)[C@@H](NC(=S)[C@H](C)NC)CCS[C@H]5CC4(C)C)CC3)N2C1=O
- EC50: 32 nM

SMILES: CN[C@@H](C)C(=S)N[C@H]1CCS[C@H]2CC(C)(C)[C@@H](C(=O)N[C@H](C(=O)N[C@H]3CC[C@H](NC(=O)[C@@H](NC(=O)[C@H]4N5C(=O)[C@@H](NC(=S)[C@H](C)NC)CCS[C@H]5CC4(C)C)c4ccccc4)CC3)c3ccccc3)N2C1=O
- EC50: 89.5 nM
